Common to all, as to assay type: physicochemical
Data set [1] can be described thus: Static storage at 40° C./75% RH, XRPD and HPLC post storage. To be noted: for stability to storage at 40° C./75% RH (in words): 40° C./75% RH (elevated temperature and humidity); for HPLC purity post storage at 40° C./75% RH / XRPD post storage at 40° C./75% RH: 7 days. The method, then:
Purity analysis was performed on an Agilent HP1100/Infinity II 1260 series system equipped with a diode array detector and using OpenLAB software. The full method details are provided below:
Poorly Crystalline Structure (I) (from Lot A, Free Form Pattern 1, 30 mg) was dissolved in 50 volumes of THF:Water 9:1 at 60° C. in 13 vials, stirring at 500 RPM (small amount of debris present). The solutions were then treated with 1.1 molar equivalents (90/180 μL) of selected counter-ions (Table 7). The resulting solutions were then cooled down to 5° C. at 0.1° C./min and were held at this temperature for 2 days. The suspensions were filtered and dried under suction for 20 min. The gummed sample was left with the cap off to promote crystallization. All solids obtained were initially analyzed by XRPD and stored in glass HPLC vials for subsequent analysis.
Any solids obtained were analyzed by XRPD, ^1H NMR, HPLC, TGA, DSC, XRPD post storage at 40° C./75% RH after 7 days & IC if necessary. Additional microscopy techniques (PLM & HSM) were used to complement the above analysis where appropriate.

Assay in data set [2]: as above
The settings on record: 7 days.

Data set [3] in a line: Drying / standing under ambient conditions, XRPD. The settings on record: for XRPD (Dry): after drying under ambient conditions overnight. The method, then:
Structure (I) (Sample 28-2, 30 mg, Poorly Crystalline Pattern 3) was wetted with solvent (300 μL, 10 vol) according to Table 30 and put into a shaker at 50° C. for 6 days. The suspensions were isolated using filter cartridges and positive pressure. A XRPD pattern was collected for each sample. […] This characterization is presented and discussed in Examples detailed herein. (see, e.g., FIG. 75)

Data set [4] can be described thus: Initial solubility testing in solvents. The settings on record: organic solvent or mixture, thermodynamic from solid. The method, then:
Structure (I) (20 mg) from Lot A (free form Pattern 1) was charged into HPLC vials, treated with solvent, 10 volumes at a time, until the material fully dissolved or a maximum of 50 volumes had been added. Once 50 volumes was reached without dissolution, the temperature was increased to 50° C. To each suspension, 1.1 molar equiv. (60 μL) of HCl (1M in THF) was added, stirred for 5 min, and slowly cooled to 5° C. at 0.1° C./min and held at that temperature overnight. All solids were then isolated by filtration through PTFE frits and dried under suction for 20 min. The samples were analyzed by XRPD.

“Also recorded” adds a separate entry of the source. Structures can show the parent of a compound that is named as a salt. Where two headings read alike, the source gives them in different places. Bounds are passed on as bounds.

On to `Cc1cc(Nc2cc(N)ncn2)c(=O)n2c1C(=O)NC21CCC2(CC2)CC1` [HCl Pattern 1], for which the “stability to storage at 40° C./75% RH (in words)” value in data set [1] (listed as Chloride Pattern 1) is recorded as “remained stable by XRPD & HPLC”. Moreover, the “HPLC purity post storage at 40° C./75% RH” value in data set [1] (listed as 22-1) stood at 99.3%. Besides, in data set [2] (listed as 22-1), the “XRPD post storage at 40° C./75% RH” value is on record as “Unchanged”.
In the case of `Cc1cc(Nc2cc(N)ncn2)c(=O)n2c1C(=O)NC21CCC2(CC2)CC1` [HCl Patterns 1 and 3], the “stability to storage at 40° C./75% RH (in words)” value in data set [1] was “stable to storage”. In addition, in data set [1] (listed as 9-2), the “HPLC purity post storage at 40° C./75% RH” value was determined as 97.7% purity. Moreover, the “XRPD post storage at 40° C./75% RH” value in data set [2] (listed as 9-2) is recorded as “No change by XRPD”.
Consider `Cc1cc(Nc2cc(N)ncn2)c(=O)n2c1C(=O)NC21CCC2(CC2)CC1` [MES Pattern 2], for which, in data set [1] (listed as 22-6), the “HPLC purity post storage at 40° C./75% RH” value is on record as 99.1%. Also, the “change of chemical purity on storage at 40° C./75% RH (in words)” value (from here on “change … at 40° C./75% RH (in words)”) in data set [1] (listed as 21-1) is given as “Notable increase in purity after”. The “XRPD post storage at 40° C./75% RH” value in data set [2] (listed as 21-1) was “storage, with no observed impact”; in data set [2] (listed as 22-6), “Unchanged”.
For the compound `Cc1cc(Nc2cc(N)ncn2)c(=O)n2c1C(=O)NC21CCC2(CC2)CC1` [Maleate Pattern 1], in data set [1] (listed as 9-7), the “stability to storage at 40° C./75% RH (in words)” value was “data. Form looks stable” and the “HPLC purity post storage at 40° C./75% RH” value was found to be 98.8% purity. Maleate. In addition, the “XRPD post storage at 40° C./75% RH” value in data set [1] is “consistent with Maleate Pattern 1”. Besides, the “XRPD post storage at 40° C./75% RH” value in data set [2] (listed as 9-7) is reported as “pattern retained; very”.
Consider `Cc1cc(Nc2cc(N)ncn2)c(=O)n2c1C(=O)NC21CCC2(CC2)CC1` [Pattern 4], for which the “XRPD post storage at 40° C./75% RH” value in data set [1] was “converted to Pattern 3”; in data set [2] (listed as 27-1) it was “Change in form—Pattern 3”.
For the compound `Cc1cc(Nc2cc(N)ncn2)c(=O)n2c1C(=O)NC21CCC2(CC2)CC1` [Pattern 6], in data set [3] (listed as 30-4), the “XRPD (Dry)” value is recorded as “maintained after mild drying; also recorded: Pattern 6”. Moreover, the “XRPD post storage at 40° C./75% RH” value in data set [2] (listed as 30-4) was “convert to Pattern 3; also recorded: form-Pattern 3”.
With `Cc1cc(Nc2cc(N)ncn2)c(=O)n2c1C(=O)NC21CCC2(CC2)CC1` [Pattern 7], the “stability to storage at 40° C./75% RH (in words)” value in data set [1] (listed as 30-6) is on record as “not stable to static storage”. Moreover, the “XRPD (Dry)” value in data set [3] (listed as 30-6) is listed as “Pattern 7”. Besides, the “XRPD post storage at 40° C./75% RH” value in data set [2] (listed as 30-6) is 7 days: Change in form-Pattern 3.
Consider `Cc1cc(Nc2cc(N)ncn2)c(=O)n2c1C(=O)NC21CCC2(CC2)CC1` [Pattern 8-2], for which the solubility in data set [4] (50 °C, 50 vol, 50° C., read-out: solubilization upon heating to 50° C.) was less than 20 mg/mL; in data set [4] (20 mg in 10 vol of the sample's solvent, read-out: solubilization at 10 vol) it was less than 100 mg/mL; in data set [4] (20 vol of the sample's solvent, read-out: solubilization at 20 vol), less than 50 mg/mL; in data set [4] (30 vol of the sample's solvent, read-out: solubilization at 30 vol), less than 33.3 mg/mL; in data set [4] (40 vol of the sample's solvent, read-out: solubilization at 40 vol), less than 25 mg/mL; in data set [4] (50 vol of the sample's solvent, read-out: solubilization at 50 vol), less than 20 mg/mL.
Turning to `Cc1cc(Nc2cc(N)ncn2)c(=O)n2c1C(=O)NC21CCC2(CC2)CC1` [Pattern 8], the “XRPD (Dry)” value in data set [3] is given as “unstable to drying under ambient conditions”. For the same compound, in data set [2] (listed as 30-15), the “XRPD post storage at 40° C./75% RH” value was “Pattern 3”.
Turning to `Cc1cc(Nc2cc(N)ncn2)c(=O)n2c1C(=O)NC21CCC2(CC2)CC1` [Pattern 9], in data set [3], the “XRPD (Dry)” value is listed as “unstable to drying under ambient conditions”. The “form under ambient conditions (XRPD after ambient overnight)” value in data set [3] (ambient conditions) is “unstable at ambient conditions”.
As for `Cc1cc(Nc2cc(N)ncn2)c(=O)n2c1C(=O)NC21CCC2(CC2)CC1` [Phosphate Pattern 1], the figures for the “stability to storage at 40° C./75% RH (in words)” value in data set [1] and in data set [1] (listed as 9-8) were “remained stable by XRPD & HPLC” and “data. Form looks stable”, respectively. Besides, the entries for the “XRPD post storage at 40° C./75% RH” value in data set [1], in data set [2] (listed as 9-8) and in data set [2] (listed as 22-2) were “consistent with PHO Pattern 1”, “pattern retained,” and “Unchanged”, respectively. Moreover, the figures for the “HPLC purity post storage at 40° C./75% RH” value in data set [1] (listed as 9-8) and in data set [1] (listed as 22-2) were 98.5% purity. Phosphate and 99.1%, respectively.
Turning to `Cc1cc(Nc2cc(N)ncn2)c(=O)n2c1C(=O)NC21CCC2(CC2)CC1` [SUL Pattern 1], in data set [1], the “change … at 40° C./75% RH (in words)” value is recorded as “decrease in the observed chemical purity” and the “stability to storage at 40° C./75% RH (in words)” value is “stable to storage”. In addition, in data set [1] (listed as 9-3), the “HPLC purity post storage at 40° C./75% RH” value is reported as 95.6% and the “change … at 40° C./75% RH (in words)” value is on record as “complex thermal data, loss of purity”. For the same compound, the “XRPD post storage at 40° C./75% RH” value in data set [2] (listed as 9-3) is recorded as “SUL Pattern 1”.
For `Cc1cc(Nc2cc(N)ncn2)c(=O)n2c1C(=O)NC21CCC2(CC2)CC1` [Tartrate Pattern 1], the “stability to storage at 40° C./75% RH (in words)” value in data set [1] is listed as “stable to storage”. Also, the “HPLC purity post storage at 40° C./75% RH” value in data set [1] (listed as 9-9) is 98.1% purity. Tartrate. Further, in data set [2] (listed as 9-9), the “XRPD post storage at 40° C./75% RH” value is given as “pattern retained”.
Take `Cc1cc(Nc2cc(N)ncn2)c(=O)n2c1C(=O)NC21CCC2(CC2)CC1` [amorphous material]: the “XRPD post storage at 40° C./75% RH” value is “converted to Free Form Pattern 3” in data set [1] and 7 days: Crystallization-Pattern 3 (WD) in data set [2] (listed as 28-1).

(Values after patent US20260217712A1, “SOLID STATE FORMS OF MNK INHIBITORS” (4E Therapeutics, Inc., priority 2023, published 2026).)
